{"source": "paper PMC8465676", "about": "“A Novel Competitive Binding Screening Assay Reveals Sennoside B as a Potent Natural Product Inhibitor of TNF-α” (Biomedicines, 2021)", "target": "T1, TNF-α (Homo sapiens, UniProt P01375)", "T1 construct": "human recombinant TNF-α (PeproTech), intact homotrimer", "T1 sequence (P01375 77-233)": "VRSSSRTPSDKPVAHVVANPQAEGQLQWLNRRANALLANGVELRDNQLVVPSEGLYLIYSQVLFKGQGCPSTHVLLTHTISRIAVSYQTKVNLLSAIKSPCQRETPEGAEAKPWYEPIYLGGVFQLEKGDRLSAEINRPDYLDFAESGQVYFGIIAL", "assay": "competitive binding by SEC/ultrafiltration with LC-MS; SPD304 displaced and bound sennoside B detected", "settings": "read-out: % inhibition of SPD304 signal (at 3.5 μM)"}
{"compound": "O=C(O)c1cc(O)c2c(c1)[C@@H]([C@H]1c3cc(C(=O)O)cc(O)c3C(=O)c3c(O[C@@H]4O[C@H](CO)[C@@H](O)[C@H](O)[C@H]4O)cccc31)c1cccc(O[C@@H]3O[C@H](CO)[C@@H](O)[C@H](O)[C@H]3O)c1C2=O", "note": "[compound 23, sennoside B]", "values": [{"measurement": "inhibition at 3.5 µM", "result": 89.4, "unit": "%"}]}
